From US7807368B2, “Cyclin-dependent kinase inhibitors as targets for opiod growth factor treatment” (priority 2006, dated 2010) come the findings set out here.

The test system of experiment [1] is Rb protein. The experiment in a line: Western blot of Rb and phospho-Rb in synchronized BxPC-3 cells. Format: cell-based, human. As for the experimental part:
Synchronized cells (2×10^6) from each treatment were solubilized in 200 μl RIPA buffer (1×PBS, 10 μM IGEPAL, 1 mg/ml SDS, 5 mg/ml deoxycholic acid), containing protease and phosphatase inhibitors (2 μg/ml aprotinin, 3 mg/ml phenylmethyl sulfonyl fluoride, 1 mM sodium orthovanidate, 1 μM okadaic acid). Total protein concentrations were measured using the DC protein assay kit (Bio-Rad Laboratories, Hercules, Calif.). Equal amounts of protein (40 μg) were subjected to 10% SDS-PAGE followed by transfer of proteins onto polyvinylidene difluoride (Millipore, Billerica, Mass.) using standard protocols.
The following antibodies were purchased from commercial sources: phospho-Rb (Ser795), phospho-Rb (Ser807/811) (Cell Signaling Technology, Beverly, Mass.); Cdk2, p57 (Santa Cruz Biotechnology, Santa Cruz, Calif.); p21, p27, total Rb (BD PharMingen, San Diego, Calif.); β-actin (Clone AC-15, Sigma-Aldrich).
Membranes were probed with secondary anti-rabbit or anti-mouse horseradish peroxidase-conjugated antibodies (GE Healthcare-Amersham Biosciences, Piscataway, N.J.), and developed using a chemiluminescence Western blotting detection system.
To determine equal loading of total protein samples, blots were re-probed with monoclonal antibody against β-actin at a dilution of 1:2000. If necessary, membranes were processed in stripping buffer (62.5 mM Tris-HCI and 100 mM β-mercaptoethanol/2% SDS, pH 6.7) at 50° C. before being re-probed.
To quantify expression levels or kinase activity, the optical density of each band was determined by densitometry and analyzed by QuickOne (Bio-Rad Laboratories). Each value was normalized to β-actin from the same blot. To report the changes due to OGF treatment, we calculated the fold increase by dividing the normalized value from the OGF treated samples by the normalized value of control samples at each time point; thus, increases due to OGF have values greater than one, and decreases due to OGF have values less than one. For all Western blot analyses, 3 or more independent experiments were performed.
For orientation: In western blotting, separated proteins are transferred to a membrane and probed.

The next experiment concerns SCC-1 cells. Put plainly: Growth curves of SCC-1 cells (viable cell counts, hemacytometer). Format: cell-based, human. The note with it: 10^-6 M OGF. As for the experimental part:
The SCC-1 (UM-SCC-1) cell line was obtained from the University of Michigan Cancer Research Laboratory, and CAL-27 and SCC-4 cells were obtained from the American Type Culture Collection (Manassas, Va.). SCC-1 and CAL-27 cells were cultured in DMEM media, whereas SCC-4 cells were grown in 1:1 Hams F-12 DMEM media. All media was supplemented with 10% fetal bovine serum (HyClone, Logan, Utah), 1.2% sodium bicarbonate, and 5000 units/ml penicillin, 5 μg/ml streptomycin and 10 μg/ml neomycin. OGF was purchased from Sigma-Aldrich (St. Louis, Mo.), dissolved in sterile water, and used at a final concentration of 10^−6 M.
Cell growth and flow cytometry. For growth curves, cells were seeded in 6-well plates at an initial density of ˜2×10^5 cells/well. Fresh media and OGF were added 24 h after initial seeding, and media and OGF were replaced daily. At appropriate times, the cells were washed with PBS, trypsinized, and viable cell numbers were counted by trypan blue exclusion using a hemacytometer.

The test system of experiment [2] is Rb protein. Put plainly: Western blot of Rb, phospho-Rb, p105 and p107 in synchronized SCC-1 cells. Format: cell-based, human. As for the experimental part: Synchronized cells (˜2×10^6) from each treatment were solubilized in 200 μl RIPA buffer (1×PBS, 10 μM IGEPAL, 1 mg/ml SDS, 5 mg/ml deoxycholic acid), containing protease and phosphatase inhibitors (2 μg/ml aprotinin, 3 mg/ml phenylmethyl sulfonyl fluoride (PMSF), 1 mM sodium orthovanidate, 1 μM okadaic acid). Total protein concentrations were measured using the DC protein assay kit (Bio-Rad Laboratories, Hercules, Calif.). Equal amounts of protein (40 μg) were subjected to 10% SDS-PAGE followed by transfer of proteins onto polyvinylidene difluoride (Millipore, Billerica, Mass.) using standard protocols. The following antibodies were purchased from commercial sources: phospho-Rb (Ser795), phospho-Rb (Ser807/811) (Cell Signaling Technology, Beverly, Mass.); phospho-Rb (Thr821) (Biosource, Camarillo, Calif.); Cdk4, cyclin D1, p15, p16, p18, p19 (Santa Cruz Biotechnology, Santa Cruz, Calif.); total Rb, p21, p27 (BD PharMingen, San Diego, Calif.); β-actin (Clone AC-15, Sigma). The following dilutions of primary antibodies were used to detect respective proteins. 1:200 phospho-Rb (Ser795), 1:200 phospho-Rb (Ser807/811); 1:200 phospho-Rb (Thr821); 1:200 Cdk4, 1:200 cyclin D1, 1:100 p16; 1:200 total Rb, 1:200 p21, 1:100 p27. […]
To determine equal loading of total protein samples, blots were reprobed with monoclonal antibody against β-actin at a dilution of 1:2000. […] Means and SE were determined from 3 or more independent experiments.
To quantify expression levels or kinase activity, the optical density of each band was determined by densitometry and analyzed by QuickOne (Bio-Rad Laboratories). […] To report the changes due to OGF treatment, the fold increase was calculated by dividing the normalized value from the OGF treated samples by the normalized value of control samples at each time point; thus, increases due to OGF have values greater than one, and decreases due to OGF have values less than one.

Experiment [3] has as its system BxPC-3 human pancreatic cancer cells. Put plainly: Growth curves of BxPC-3 cells. The note with it: 10^-6 M OGF. In kind it is cell-based. As for the experimental part: Human pancreatic cancer cell lines BxPC-3, PANC-1, and Capan-2 were obtained from the American Type Culture Collection (Manassas, Va.), and cultured in RPMI, Dulbecco's Modified Medium, or McCoy's 5A medium, respectively. All media were supplemented with 10% fetal bovine serum, 1.2% sodium bicarbonate, and 0.25% antibiotics (5000 units/ml penicillin, 5 μg/ml streptomycin and 10 μg/ml neomycin). OGF was purchased from Sigma-Aldrich (St. Louis, Mo.), dissolved in sterile water, and used at a final concentration of 10^−6 M.
For growth curves, cells were seeded in 6-well plates at an initial density of 2×10^5 cells/well. Fresh media and OGF were added 24 hours after initial seeding, and media and OGF were replaced daily. At appropriate times, the cells were washed with PBS, trypsinized, and viable cell numbers were counted by trypan blue exclusion using a hemacytometer.

Setting [4] is: linear regression of growth data.

As to [Met^5]-enkephalin [OGF], the “level of phospho-Rb (Ser795)” value in the experiment with Rb protein [1] (15, 18, and 21 hours, 10^-6 M OGF, significant at 21 hours (p<0.01)) is on record as “decreased”. In addition, the “phospho-Rb (pSer807/811) levels” value in the experiment on Rb protein [1] (OGF treatment, Western blot) is given as “did not alter”. The “Expression of total Rb protein” value in the experiment with Rb protein [1] (after 21 hours of OGF treatment) and with Rb protein [2] (after 14 h of OGF treatment) was “not decreased” in each case. For the same substance, the “Cell number compared to controls” value with SCC-1 cells (72 h) is on record as 87.5%; in the experiment with SCC-1 cells (96 h) it was 59.0%. Besides, the mean doubling time entry in the experiment on SCC-1 cells (setting [4]) is “approximately 41.3 h”; in experiment [3] (setting [4]), 51 h. Further, the “phospho-Rb (pT821) levels” value in the experiment on Rb protein [2] (OGF treatment, Western blot) is given as “did not alter”. Further, the “Total levels of p105 and p107” value with Rb protein [2] (after exposure to OGF) is “no changes”. Further, the “cell numbers compared to control cultures” value is recorded as 66% in experiment [3] (48 hours) and 55% in experiment [3] (72 hours).
